Assay results from article PMC10017042 (Science Advances, 2023).
Where two headings read alike, the source gives them in different places.

Experiments:
[1] = Plasma drug concentrations (pyrimethamine UPLC-MS/MS, VPA assay, unbound dolutegravir) in trial participants; assay type: in vivo, human; conditions: human, plasma, 6 hours, read-out: Median unbound dolutegravir concentration
Procedure: Self-reported adherence was assessed at each study visit, and empty pill strips were collected after the 2-week intervention phase. […] A gradient (0.3 ml/min) with two eluents was used (A: 2 mM ammonium acetate + 0.1% formic acid in water; B: 2 mM ammonium acetate + 0.1% formic acid in methanol). […] For measurement validation, we performed linearity, correctness, LOD and lower LOQ, repeatability, reproducibility, measurement uncertainty, robustness, and carryover. […] Unbound dolutegravir plasma concentrations were quantified with a validated UPLC-MS/MS bioquantification method as previously described ([61]).

HIV-1 = conditions: cited from earlier work

C[C@@H]1CCO[C@H]2Cn3cc(C(=O)NCc4ccc(F)cc4F)c(=O)c(O)c3C(=O)N12 [dolutegravir]
concentration at 6 h ([1]; those with pyrimethamine exposure): 11.7 ng/mL
concentration at 6 h ([1]; those without pyrimethamine exposure): 10.1 ng/mL

C/C=C1\NC(=O)[C@H]2CSSCC/C=C/[C@H](CC(=O)N[C@H](C(C)C)C(=O)N2)OC(=O)[C@H](C(C)C)NC1=O [romidepsin]
Effect on HIV-1 transcription (HIV-1; additional pharmacodynamics studies): no significant effect
Increase in CA US HIV-1 RNA (HIV-1; initial studies): approximately threefold

O=C(CCCCCCC(=O)Nc1ccccc1)NO [vorinostat]
Mean fold increase in CA US HIV-1 RNA (HIV-1; at time points during vorinostat): 2.6 fold
HIV-1 reactivation (HIV-1; combined with a T cell-inducing HIV-1 vaccine in PLWH who initiated cART during acute HIV-1): No reactivation
Fold change in CA US HIV-1 RNA (HIV-1; vorinostat treatment in postmenopausal women): 1.5 fold
